Data as given in patent US20170015555A1, “LONG-TERM PRESERVATION AND NOVEL APPLICATION OF CHLOROUS ACID AQUEOUS SOLUTION FORMULATION” (priority 2013, published 2017).

Test system: Microbes of the genus Salmonella: Salmonella Enteritidis IF03313
Assay type: cell-based
Conditions: stored at 25° C. Day 7; 1000 ppm available chlorine
Text: 1) Chlorous acid aqueous solution formulation (see Example 1: Table 11) Treatment sheet (material: 100% cotton): (about 27×40 cm) *Impregnated at a ratio of weight of treatment sheet (g): amount of liquid (ml)=1:3 2) Imitation vomit Miso solution: adjusted to pH of 2 with hydrochloric acid 3) Test Microbes that were Used E. coli: Escherichia coli IF03927 Staphylococcus aureus: Staphylococcus aureus IF0 12732 Thermoduric Microbes (Bacillus cereus): Bacillus cereus NBRC15305 Microbes of the genus Salmonella: Salmonella Enteritidis IF03313 Enterohemorrhagic Escherichia coli O157: Escherichia coli O157 Enterohemorrhagic Escherichia coli O111: Escherichia coli O111 Enterohemorrhagic Escherichia coli O26: Escherichia coli O26
(1) Imitation vomit was spread in an area about the size of an A4 sheet. (2) 5 dry sheets were laid thereon. (3) An agent solution was poured on the dry sheets to wipe off the imitation vomit. (4) A cotton swab was soaked with sterile saline. A portion where imitation vomit was spread was scrubbed with the cotton swab to collect microbes remaining on the floor. After suspending in saline, the solution was spread on a petri dish and cultured. The number of each of the microbes was measured. (5) Test operations 3 and 4 were repeated a total of 7 times (repeated until the imitation vomit could be removed completely).

[Na] [Sodium]
<10: Number of Times Wiped 1 Time (remaining microbes) | Number of Times Wiped 2 Times (remaining microbes) | Number of Times Wiped 3 Times (remaining microbes)
